Results from US9067900B2, “Diaminophenothiazine compounds, a method for preparing same and uses thereof” (PHARMA HYDRO DEVELOPMENT—P.H.D., priority 2007, dated 2015).

Legend:
[1] = test system: Legionella pneumophila subsp pneumophila CIP 103 854; type: cell-based; conditions: 100 mg/l in distilled water, contact time 15 to 30 mn; dichlorhydrate solution
[2] = test system: Pseudomonas aeruginosa CIP 103 467; test: Biocidal activity test according to EN standards (EN 1040, EN 1275); type: cell-based; conditions: 50 to 100 mg/l in distilled water, contact time 15 to 30 mn
[3] = test system: Escherichia coli CIP 54 127; test: as above; type: cell-based; conditions: 50 to 100 mg/l in distilled water, contact time 15 to 30 mn
[4] = test system: Candida albicans IP 48.72; test: as above; type: cell-based; conditions: under light
Description: The biocidal tests were carried out according to Directive NF EN 1040. Tests were conducted at the same time in the dark and under white light, corresponding to a moderate sunshine (400 KJ/M2) using an ordinary incandescent or halogen lamp. Some tests may be carried out up to 1.3 mW/Cm^2 […] The color change is all the more fast that the solution is illuminated under white light. The tests are performed in sterile glass flasks according to disinfection test standards. Illumination is a sun light illumination or an artificial light illumination and is compared with tests carried out in the dark (glass material is wrapped with aluminium foil). Biocidal activity tests are carried out according to EN standards, for example EN 1040, EN 1275, on reference microbial strains registered under ATCC and CIP, and validated by an accredited laboratory. […] These tests validate as biocide agents as defined by the European pharmacopoeia if the infectious titer reduction is higher than 5. Tests are carried out under white light versus a control in the dark. In all cases, white light accelerates the biocidal phenomenon, for example the biocidal activity under light requires a 15 min-contact time, as opposed to 30 mn in the dark. It should be noted that the DAP 2,8 series may have a “range effect”, that is to say there is a concentration range that is more efficient as compared to higher concentrations.

albino rabbits [5] = test: Skin irritation/corrosion, OCDE 404 classification; type: in vivo; conditions: 100 mg/l to 1000 mg/l
albino rabbits [6] = test: Eye irritation/corrosion, OCDE 405 classification; type: in vivo; conditions: 100 mg/l to 1000 mg/l

## CN(C)c1ccc2c(c1)Nc1cc(N(C)C)ccc1S2 [Example 1, N,N,N′,N′-tetramethyl-10H-phenothiazine-2,8-diamine]
[1]
  Infectious titer reduction (log): >5.5 log
[2]
  Infectious titer reduction (log): >5.5 log
[3]
  Infectious titer reduction (log): >5.5 log
[4]; 100 mg/l in distilled water, contact time 30 mn
  Infectious titer reduction (log): 3.2 log
[4]; 250 or 500 mg/l, 30 mn of contact
  Infectious titer reduction: < 2.8 log
Albino rabbits [5]
  irritant or corrosive activity, skin: non-irritant
Albino rabbits [6]
  irritant or corrosive activity, eyes: non-irritant

## CCCCN(CCCC)c1ccc2c(c1)Nc1cc(N3CCN(C)CC3)ccc1S2 [Example 11, N,N-Dibutyl-[8-(4-methylpiperazin-1-yl)-10H-phenothiazin-2-yl]amine]
other
  melting point: 150 to 152 °C

## CCCNc1ccc2c(c1)Nc1cc(N(C)C)ccc1S2 [Example 13, N,N-Dimethyl-N′-propyl-10H-phenothiazine-2,8-diamine]
other
  melting point: 158 to 160 °C

## CCCN(CCC)c1ccc2c(c1)Nc1cc(N3CCN(C)CC3)ccc1S2 [Example 8, [8-(4-Methyl-piperazin-1-yl)-10H-phenothiazin-2-yl]-dipropylamine]
other
  melting point: 122 to 124 °C
